The values that follow are results of earlier work, collected in US20180250251A1, “Treatment of Patients with Familial Hypercholesterolemia on Lipid-Lowering Therapy” (Gemphire Therapeutics Inc., priority 2016, published 2018).

SMILES strings stand for the structures. Like-named read-outs stand apart in the source and are kept apart here.

Data set [1] deals with hypercholesterolemic patients on stable statin therapy. The note with it: placebo group −6.2%, cited from earlier work.
For data set [2] the following is noted: cited from earlier work.
Data set [3] has as its system healthy adult subjects and patients. The note with it: cited from earlier work.

For `CC(C)(CCCCOCCCCC(C)(C)C(=O)O)C(=O)O` [Gemcabene, 6-(5-Carboxy-5-methyl-hexyloxy)-2,2-dimethyl-hexanoic acid], the “LDL-C mean percent change” value in data set [1] (oral gemcabene 300 mg) is −23.4%. Besides, the “LDL-C mean percent change” value in data set [1] (oral gemcabene 900 mg) was −27.7%. The “effect on QTc interval or blood pressure” value in data set [2] (in vivo) is listed as “No clinically relevant effect”. In addition, in data set [2] (oral), the “absorption following oral administration” value is “rapidly absorbed” and the exposure versus dose entry is listed as “increasing approximately linearly with dose”. In addition, the drug-drug interactions entry in data set [2] (with simvastatin (80 mg), atorvastatin (80 mg), or digoxin (0.25 mg)) is listed as “No significant drug-drug interactions”. Besides, the “intensity of the majority of treatment-emergent adverse events” value in data set [3] (across all clinical studies) was “mild to moderate”. The deaths result in data set [3] (across all previous studies) is “no deaths”. For the same compound, in data set [3] (human, in vivo), the “time for creatinine values to return to baseline after cessation of gemcabene” value is “approximately 2 weeks”. The “glomerular filtration rate (GFR)” value in data set [3] (iohexol clearance study) is recorded as “slightly decreased”. Moreover, in data set [3] (prior clinical studies), the “treatment-related SAEs” value is listed as “no treatment-related SAEs reported”. Moreover, the tolerability result in data set [3] (prior clinical studies, single doses up to 1500 mg and multiple doses up to 900 mg for up to 12 weeks) was “well tolerated”. The “serum creatinine and blood urea nitrogen (BUN)” value in data set [3] (some studies, appeared within the first 2 to 4 weeks, no further increase over time) was “Small mean increases”.
